For test [1], the target named is T1, Polyunsaturated fatty acid lipoxygenase ALOX15 (Oryctolagus cuniculus, UniProt P12530).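 Further: inhibition of 15-lipoxygenase enzyme activity measured with linoleic acid as the substrate; in other assays of this panel Not Active means under 50% inhibition at 10 µM.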
T1 sequence (P12530 whole entry): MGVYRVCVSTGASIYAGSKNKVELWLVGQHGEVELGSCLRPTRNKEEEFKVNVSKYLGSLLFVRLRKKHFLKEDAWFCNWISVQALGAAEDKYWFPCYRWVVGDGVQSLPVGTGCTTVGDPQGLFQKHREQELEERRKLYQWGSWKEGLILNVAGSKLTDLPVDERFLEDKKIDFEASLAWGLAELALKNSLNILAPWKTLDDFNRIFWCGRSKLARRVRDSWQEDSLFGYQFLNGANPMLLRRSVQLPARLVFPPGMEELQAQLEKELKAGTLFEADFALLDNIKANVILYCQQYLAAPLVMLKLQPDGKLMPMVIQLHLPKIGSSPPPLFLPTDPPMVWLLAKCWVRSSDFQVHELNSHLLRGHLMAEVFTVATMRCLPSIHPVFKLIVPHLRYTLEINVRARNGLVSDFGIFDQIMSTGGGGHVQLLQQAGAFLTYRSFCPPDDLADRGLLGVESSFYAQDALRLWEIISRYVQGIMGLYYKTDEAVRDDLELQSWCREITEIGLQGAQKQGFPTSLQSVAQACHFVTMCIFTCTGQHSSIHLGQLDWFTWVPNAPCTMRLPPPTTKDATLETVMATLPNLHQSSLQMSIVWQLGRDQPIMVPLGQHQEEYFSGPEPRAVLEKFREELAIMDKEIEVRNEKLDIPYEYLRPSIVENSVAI
The test is described as follows: biochemical. The test is classed as tissue-based, Reticulocytes.

Test [2] in a line: DRUGMATRIX: Glutamate, NMDA, Phencyclidine radioligand binding (ligand: [3H] TCP). In kind it is cell membranes, Rattus norvegicus, Wistar, Cerebral cortex, Membrane. The following applies: Not Active = under 50% inhibition at 10 µM.
For test [3], the target named is Tyrosine-protein kinase Fyn (Homo sapiens, UniProt P06241). Briefly: biochemical. The test is classed as cell-based, Insect cells.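 Further: enzymatic inhibition of Fyn kinase activity measured with Poly(Glu:Tyr) as the phosphorylation substrate; in other assays of this panel Not Active means under 50% inhibition at 10 µM.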
In test [4] the target is Delta-type opioid receptor (Homo sapiens, UniProt P41143). In kind it is cell membranes, HEK293, Membrane. The conditions noted are these: hek293. Further: in other assays of this panel Not Active means under 50% inhibition at 10 µM.
The target in test [5] is Sodium-dependent dopamine transporter (Homo sapiens, UniProt Q01959). The test is described as follows: DRUGMATRIX: Dopamine Transporter radioligand binding (ligand: [125I] RTI-55). The test is classed as cell membranes, CHO-K1, Membrane. The conditions noted are these: Not Active = under 50% inhibition at 10 µM; for Ki: read-out: Ki.
For test [6], the target named is Beta-3 adrenergic receptor (Homo sapiens, UniProt P13945). Briefly: DRUGMATRIX: Adrenergic beta3 radioligand binding (ligand: [125I] Cyanopindolol). The test is classed as cell membranes, HEK293, Membrane. The conditions noted are these: hek293; Not Active = under 50% inhibition at 10 µM.
Sequence of Beta-3 adrenergic receptor (P13945 whole entry): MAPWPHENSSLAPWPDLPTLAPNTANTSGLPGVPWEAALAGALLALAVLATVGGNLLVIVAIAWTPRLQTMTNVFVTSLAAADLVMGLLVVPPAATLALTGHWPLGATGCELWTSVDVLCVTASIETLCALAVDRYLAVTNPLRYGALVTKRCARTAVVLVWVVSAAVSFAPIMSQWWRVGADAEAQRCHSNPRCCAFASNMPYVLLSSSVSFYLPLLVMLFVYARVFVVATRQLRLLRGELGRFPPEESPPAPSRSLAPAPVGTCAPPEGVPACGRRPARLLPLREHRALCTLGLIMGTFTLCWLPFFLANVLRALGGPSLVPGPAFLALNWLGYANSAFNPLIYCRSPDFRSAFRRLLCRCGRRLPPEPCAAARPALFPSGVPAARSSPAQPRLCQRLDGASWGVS

Sequence of Delta-type opioid receptor (P41143 whole entry): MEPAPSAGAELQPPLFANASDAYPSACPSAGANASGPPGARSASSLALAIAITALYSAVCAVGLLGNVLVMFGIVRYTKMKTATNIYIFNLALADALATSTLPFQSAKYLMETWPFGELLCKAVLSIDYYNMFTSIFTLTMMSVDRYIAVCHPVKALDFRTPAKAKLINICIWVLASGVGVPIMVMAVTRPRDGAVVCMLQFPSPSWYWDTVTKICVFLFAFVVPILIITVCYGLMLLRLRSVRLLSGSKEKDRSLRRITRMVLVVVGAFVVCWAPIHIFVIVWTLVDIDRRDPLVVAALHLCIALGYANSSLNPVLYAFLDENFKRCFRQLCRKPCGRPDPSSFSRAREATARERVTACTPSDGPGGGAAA
Sequence of Sodium-dependent dopamine transporter (Q01959 whole entry): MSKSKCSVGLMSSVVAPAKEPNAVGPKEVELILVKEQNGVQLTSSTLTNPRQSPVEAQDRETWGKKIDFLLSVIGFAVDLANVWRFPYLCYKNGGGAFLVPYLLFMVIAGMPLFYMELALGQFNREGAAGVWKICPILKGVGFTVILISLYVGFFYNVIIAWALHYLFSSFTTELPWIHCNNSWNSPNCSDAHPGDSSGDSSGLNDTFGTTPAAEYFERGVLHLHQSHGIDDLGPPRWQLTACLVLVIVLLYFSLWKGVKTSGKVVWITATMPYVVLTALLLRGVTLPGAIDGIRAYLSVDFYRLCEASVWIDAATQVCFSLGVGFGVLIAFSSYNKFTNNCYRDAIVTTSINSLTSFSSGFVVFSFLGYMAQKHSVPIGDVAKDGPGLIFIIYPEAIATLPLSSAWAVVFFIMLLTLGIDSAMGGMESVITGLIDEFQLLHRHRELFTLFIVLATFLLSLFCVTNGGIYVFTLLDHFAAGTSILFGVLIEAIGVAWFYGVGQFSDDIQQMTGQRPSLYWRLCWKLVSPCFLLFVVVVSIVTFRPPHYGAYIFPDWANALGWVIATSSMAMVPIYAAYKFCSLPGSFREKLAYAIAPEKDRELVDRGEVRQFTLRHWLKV
Sequence of Tyrosine-protein kinase Fyn (P06241 whole entry): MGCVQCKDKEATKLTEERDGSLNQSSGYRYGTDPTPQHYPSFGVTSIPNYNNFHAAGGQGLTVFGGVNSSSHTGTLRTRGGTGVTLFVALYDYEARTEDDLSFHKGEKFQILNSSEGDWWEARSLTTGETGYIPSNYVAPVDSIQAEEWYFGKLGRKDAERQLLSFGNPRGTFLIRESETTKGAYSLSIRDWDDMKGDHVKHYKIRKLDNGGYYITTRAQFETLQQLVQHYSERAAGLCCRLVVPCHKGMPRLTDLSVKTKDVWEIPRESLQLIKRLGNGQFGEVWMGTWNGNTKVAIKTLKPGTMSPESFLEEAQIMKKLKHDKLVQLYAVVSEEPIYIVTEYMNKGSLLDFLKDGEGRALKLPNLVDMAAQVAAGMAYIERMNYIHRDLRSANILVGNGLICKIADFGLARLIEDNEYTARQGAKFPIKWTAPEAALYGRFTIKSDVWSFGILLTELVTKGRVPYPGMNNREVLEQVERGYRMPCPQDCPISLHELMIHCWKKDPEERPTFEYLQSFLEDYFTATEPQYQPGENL

As for `CCOc1ccc(NC(C)=O)cc1` [PHENACETIN], the IC50 result in test [1] (reticulocytes), in test [2], in test [3] (insect cells), in test [4], in test [5] (cho-k1) and in test [6] was “Not Active” each time. Further, the Ki entry in test [2] is listed as “Not Active”.

With `Cc1cc(C(C#N)c2ccc(Cl)cc2)c(Cl)cc1NC(=O)c1cc(I)cc(I)c1O` (stereo not drawn) [CLOSANTEL], the IC50 entry in test [1] (reticulocytes) is “Not Active”; in test [2] it was “Not Active”; in test [3] (read-out: IC50), 0.939 µM; in test [4], “Not Active”; in test [5] (read-out: IC50) it was 4.8 µM; in test [6], “Not Active”. The Ki result in test [2] is “Not Active”; in test [5], 3.8 µM.

Consider `C[C@]12CC[C@@H]3c4ccc(O)cc4CC[C@H]3[C@@H]1CCC2=O` [ESTRONE], for which the IC50 in test [1] (read-out: IC50) was 6.59 µM; in test [2], “Not Active”; in test [3] (insect cells), “Not Active”; in test [4] it was “Not Active”; in test [5] (cho-k1), “Not Active”; in test [6], “Not Active”. For the same compound, the Ki result in test [2] is “Not Active”.

Consider `NC1=NC(=O)C(c2ccccc2)O1` (stereo not drawn) [PEMOLINE], for which the IC50 result in test [1] (reticulocytes) is “Not Active”; in test [2] it was “Not Active”; in test [3] (insect cells), “Not Active”; in test [4], “Not Active”; in test [5] (read-out: IC50), 0.521 µM; in test [6], “Not Active”. The Ki result in test [2] was “Not Active”; in test [5], 0.414 µM.

In the case of `CN(C)C(=O)Oc1cc(OC(=O)N(C)C)cc(C(O)CNC(C)(C)C)c1` (stereo not drawn) [BAMBUTEROL], the IC50 entry in test [1] (reticulocytes), in test [2], in test [3] (insect cells), in test [4], in test [5] (cho-k1) and in test [6] was “Not Active” in each case. In addition, the Ki result in test [2] is given as “Not Active”.

In the case of `C[C@H]1c2cccc(O)c2C(=O)C2=C(O)[C@]3(O)C(=O)C(C(N)=O)=C(O)[C@@H](N(C)C)[C@@H]3[C@@H](O)[C@@H]21.O` [DOXYCYCLINE], the IC50 result in test [1] (reticulocytes), in test [2], in test [3] (insect cells), in test [4], in test [5] (cho-k1) and in test [6] was “Not Active” throughout. The Ki result in test [2] is “Not Active”.

Consider `CC1(C)S[C@@H]2[C@H](NC(=O)Cc3ccccc3)C(=O)N2[C@H]1C(=O)O` [PENICILLIN G], for which the IC50 result in test [1] (reticulocytes), in test [2], in test [3] (insect cells), in test [4], in test [5] (cho-k1) and in test [6] was “Not Active” each time. In addition, in test [2], the Ki result is reported as “Not Active”.

Take `C[C@H]1O[C@@H](O[C@H]2[C@@H](O)C[C@H](O[C@H]3[C@@H](O)C[C@H](O[C@H]4CC[C@@]5(C)[C@H](CC[C@@H]6[C@@H]5C[C@@H](O)[C@]5(C)[C@@H](C7=CC(=O)OC7)CC[C@]65O)C4)O[C@@H]3C)O[C@@H]2C)C[C@H](O)[C@@H]1O` [DIGOXIN]: the IC50 result in test [1] (reticulocytes), in test [2], in test [3] (insect cells), in test [4], in test [5] (cho-k1) and in test [6] was “Not Active” throughout. Further, the Ki result in test [2] is “Not Active”.

`c1ccc2c(c1)c1cccc3ccc4cccc2c4c31` [BENZO[E]PYRENE]: the IC50 result in test [1] (reticulocytes), in test [2], in test [3] (insect cells), in test [4], in test [5] (cho-k1) and in test [6] was “Not Active” throughout. Besides, the Ki result in test [2] is on record as “Not Active”.

Regarding `Sc1ncnc2nc[nH]c12` [MERCAPTOPURINE ANHYDROUS], the IC50 entry in test [1] (reticulocytes), in test [2], in test [3] (insect cells), in test [4], in test [5] (cho-k1) and in test [6] was “Not Active” throughout. Moreover, the Ki entry in test [2] is recorded as “Not Active”.

`O=c1oc2ccccc2c(O)c1Cc1c(O)c2ccccc2oc1=O` [DICUMAROL]: the IC50 result in test [1] (reticulocytes), in test [2], in test [3] (insect cells), in test [4], in test [5] (cho-k1) and in test [6] was “Not Active” each time. In test [2], the Ki entry is “Not Active”.

On to `Nc1nc(N)nc(-c2cc(Cl)ccc2Cl)n1.O=C(O)/C=C\C(=O)O` [IRSOGLADINE MALEATE], for which the IC50 entry in test [1] (reticulocytes), in test [2], in test [3] (insect cells), in test [4], in test [5] (cho-k1) and in test [6] was “Not Active” in each case. Moreover, the inhibition constant Ki result in test [2] is given as “Not Active”.

For `CC1(C)O[C@@H]2C[C@H]3[C@@H]4CCC5=CC(=O)CC[C@]5(C)[C@@]4(F)[C@@H](O)C[C@]3(C)[C@]2(C(=O)CCl)O1` [HALCINONIDE], the IC50 result in test [1] (reticulocytes), in test [2], in test [3] (insect cells), in test [4], in test [5] (cho-k1) and in test [6] was “Not Active” each time. Further, the Ki entry in test [2] is given as “Not Active”.

For the compound `O=c1[nH]c(=O)n([C@H]2C[C@H](O)[C@@H](CO)O2)cc1I` [IDOXURIDINE], the IC50 entry in test [1] (reticulocytes), in test [2], in test [3] (insect cells), in test [4], in test [5] (cho-k1) and in test [6] was “Not Active” throughout. Further, the Ki result in test [2] is listed as “Not Active”.

For the compound `CC(C)C(=O)Nc1ccc([N+](=O)[O-])c(C(F)(F)F)c1` [FLUTAMIDE], the IC50 result in test [1] (reticulocytes), in test [2], in test [3] (insect cells), in test [4], in test [5] (cho-k1) and in test [6] was “Not Active” each time. The Ki result in test [2] is listed as “Not Active”.

Take `CCC1(c2ccc(N)cc2)CCC(=O)NC1=O` (stereo not drawn) [AMINOGLUTETHIMIDE]: the IC50 entry in test [1] (reticulocytes), in test [2], in test [3] (insect cells), in test [4], in test [5] (cho-k1) and in test [6] was “Not Active” in each case. For the same compound, the Ki result in test [2] was “Not Active”.

On to `Cc1ccc2cc3c(ccc4ccccc43)c3c2c1CC3` [3-METHYLCHOLANTHRENE], for which the IC50 result is “Not Active” in test [1] (reticulocytes); “Not Active” in test [2]; 25.2 µM in test [3] (read-out: IC50); “Not Active” in test [4]; “Not Active” in test [5] (cho-k1); “Not Active” in test [6]. Besides, the Ki result in test [2] is listed as “Not Active”.

For the compound `O=C(O)CCCc1ccc(N(CCCl)CCCl)cc1` [CHLORAMBUCIL], the IC50 result in test [1] (reticulocytes), in test [2], in test [3] (insect cells), in test [4], in test [5] (cho-k1) and in test [6] was “Not Active” in each case. Besides, the Ki entry in test [2] is given as “Not Active”.

With `C=C(C)C1(O)OC(=O)C=C1OC` (stereo not drawn) [PENICILLIC ACID], the IC50 result in test [1] (reticulocytes), in test [2], in test [3] (insect cells), in test [4], in test [5] (cho-k1) and in test [6] was “Not Active” each time. Besides, the Ki result in test [2] is “Not Active”.

As to `CCCC1O[C@@H]2C[C@H]3[C@@H]4CCC5=CC(=O)C=C[C@]5(C)[C@H]4[C@@H](O)C[C@]3(C)[C@]2(C(=O)CO)O1` (stereo partly drawn) [BUDESONIDE], the IC50 entry in test [1] (reticulocytes), in test [2], in test [3] (insect cells), in test [4], in test [5] (cho-k1) and in test [6] was “Not Active” each time. Further, the Ki entry in test [2] is recorded as “Not Active”.

On to `COCCc1ccc(OCC(O)CNC(C)C)cc1` (stereo not drawn) [METOPROLOL], for which the IC50 result in test [1] (reticulocytes), in test [2], in test [3] (insect cells), in test [4], in test [5] (cho-k1) and in test [6] was “Not Active” in each case. The Ki result in test [2] is “Not Active”.

On to `CC1CC(OC(=O)C(O)c2ccccc2)CC(C)(C)C1` (stereo not drawn) [CYCLANDELATE], for which the IC50 result in test [1] (reticulocytes), in test [2], in test [3] (insect cells), in test [4], in test [5] (cho-k1) and in test [6] was “Not Active” each time. Moreover, the Ki result in test [2] is reported as “Not Active”.

As for `C1CCC(C(CC2CCCCN2)C2CCCCC2)CC1` (stereo not drawn) [PERHEXILINE], the IC50 entry is “Not Active” in test [1] (reticulocytes); “Not Active” in test [2]; 4.06 µM in test [3] (read-out: IC50); “Not Active” in test [4]; “Not Active” in test [5] (cho-k1); “Not Active” in test [6]. Besides, the Ki result in test [2] is “Not Active”.

A word on the IC50: it is the midpoint of a concentration-inhibition curve. The Ki is a measure of affinity in units of concentration, obtained from inhibition or displacement.

For the origin of these results see ChEMBL document CHEMBL1909046, “DrugMatrix in vitro pharmacology data”.
